This is an account of results in patent US11446287B2, “Compounds and methods for EP300 or CBP modulation and indications therefor” (Opna Immuno-Oncology SA, priority 2019, dated 2022).

SMILES strings stand for the structures.

The experiment deals with T1, Recombinant human BRD4 containing dual bromodomains (BRD4-BD12 (1-477)) (Homo sapiens, UniProt O60885).
T1 construct: Recombinant human BRD4 containing dual bromodomains (BRD4-BD12 (1-477)); made in house; host or cells: E. coli BL21-CodonPlus (DE3), modified pET vector
The experiment in a line: BRD4 Alphascreen binding assay. Summed up:
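His-tagged human BRD4 tandem bromodomains (1-477, E. coli) incubated 1 h at room temperature with biotinylated tetra-acetylated H4 (1-21) peptide and compound in HEPES pH 7.5 buffer with 2 mM DTT. AlphaScreen signal read 30 min after adding beads (7.5 μg/ml); IC50 from four-parameter fit after normalization to controls.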
(Alpha assays give light when donor and acceptor beads are brought close together.)
As usually defined, the IC50 is the concentration that gives 50% inhibition. As for `Cc1noc(C)c1-c1cnc2c(c1)c(-c1c(F)cc(C(=O)O)cc1OC(C)C)cn2C(C1CC1)C1CC1` [P-0369, 4-(1-(dicyclopropylmethyl)-5-(3,5-dimethylisoxazol-4-yl)-1H-pyrrolo[2,3-b]pyridin-3-yl)-3-fluoro-5-isopropoxybenzoic acid], the IC50 was in the range of 1 to 8 µM.
To `CCOc1cc(C(=O)O)cc(Cl)c1-c1cn(C(C2CC2)C2CC2)c2ncc(-c3c(C)noc3C)cc12` [P-0370, 3-chloro-4-(1-(dicyclopropylmethyl)-5-(3,5-dimethylisoxazol-4-yl)-1H-pyrrolo[2,3-b]pyridin-3-yl)-5-ethoxybenzoic acid] belongs 1 to 8 µM.
In the case of `CCOc1cc(C(=O)O)cc(Cl)c1-c1cn(C2CCOCC2)c2ncc(-c3c(C)noc3C)cc12` [P-0371, 3-chloro-4-(5-(3,5-dimethylisoxazol-4-yl)-1-(tetrahydro-2H-pyran-4-yl)-1H-pyrrolo[2,3-b]pyridin-3-yl)-5-ethoxybenzoic acid], the IC50 is 1 to 8 µM.
Next, `Cc1noc(C)c1-c1cnc2c(c1)c(-c1c(Cl)cc(C(=O)O)cc1OC(C)C)cn2C1CCOCC1` [P-0372, 3-chloro-4-(5-(3,5-dimethylisoxazol-4-yl)-1-(tetrahydro-2H-pyran-4-yl)-1H-pyrrolo[2,3-b]pyridin-3-yl)-5-isopropoxybenzoic acid]: 1 to 8 µM; `CCOc1cc(C(=O)O)nc(OCC)c1-c1cn(C2CCOCC2)c2ncc(-c3c(C)noc3C)cc12` [P-0373, 5-(5-(3,5-dimethylisoxazol-4-yl)-1-(tetrahydro-2H-pyran-4-yl)-1H-pyrrolo[2,3-b]pyridin-3-yl)-4,6-diethoxypicolinic acid]: 8 to 1000 µM.
To `CCOc1cc(C(=O)O)c(F)c(OCC)c1-c1cn(C2CCOCC2)c2ncc(-c3c(C)noc3C)cc12` [P-0374, 4-(5-(3,5-dimethylisoxazol-4-yl)-1-(tetrahydro-2H-pyran-4-yl)-1H-pyrrolo[2,3-b]pyridin-3-yl)-3,5-diethoxy-2-fluorobenzoic acid] belongs 8 to 1000 µM; to `CCOc1cc(C(=O)O)c(F)cc1-c1cn(C2CCOCC2)c2ncc(-c3c(C)noc3C)cc12` [P-0375, 4-(5-(3,5-dimethylisoxazol-4-yl)-1-(tetrahydro-2H-pyran-4-yl)-1H-pyrrolo[2,3-b]pyridin-3-yl)-5-ethoxy-2-fluorobenzoic acid], 8 to 1000 µM.
To `CCOc1nc(C(=O)O)ccc1-c1cn(C2CCOCC2)c2ncc(-c3c(C)noc3C)cc12` [P-0376, 5-(5-(3,5-dimethylisoxazol-4-yl)-1-(tetrahydro-2H-pyran-4-yl)-1H-pyrrolo[2,3-b]pyridin-3-yl)-6-ethoxypicolinic acid] belongs 8 to 1000 µM; to `CCOc1cc(C(=O)O)c(F)cc1-c1cn(-c2ccccc2F)c2ncc(-c3c(C)noc3C)cc12` [P-0377, 4-(5-(3,5-dimethylisoxazol-4-yl)-1-(2-fluorophenyl)-1H-pyrrolo[2,3-b]pyridin-3-yl)-5-ethoxy-2-fluorobenzoic acid], 1 to 8 µM; to `Cc1noc(C)c1-c1cnc2c(c1)c(-c1ccc(C(=O)O)cc1OC(F)(F)F)cn2C1CCC1` [P-0378, 4-(1-cyclobutyl-5-(3,5-dimethylisoxazol-4-yl)-1H-pyrrolo[2,3-b]pyridin-3-yl)-3-(trifluoromethoxy)benzoic acid], 0.0001 to 1 µM.
In the case of `Cc1noc(C)c1-c1cnc2c(c1)c(-c1ccc(C(=O)O)cc1OC1CC1)cn2C1CCOCC1` [P-0379, 3-cyclopropoxy-4-(5-(3,5-dimethylisoxazol-4-yl)-1-(tetrahydro-2H-pyran-4-yl)-1H-pyrrolo[2,3-b]pyridin-3-yl)benzoic acid], the IC50 fell in the range of 8 to 1000 µM.
To `Cc1noc(C)c1-c1cnc2c(c1)c(-c1c(Cl)cc(C(=O)O)cc1OC(F)(F)F)cn2C(C1CCC1)C1CCC1` [P-0380, 3-chloro-4-(1-(dicyclobutylmethyl)-5-(3,5-dimethylisoxazol-4-yl)-1H-pyrrolo[2,3-b]pyridin-3-yl)-5-(trifluoromethoxy)benzoic acid] belongs 8 to 1000 µM; to `Cc1noc(C)c1-c1cnc2c(c1)c(-c1c(Cl)cc(C(=O)O)cc1OC1CC1)cn2C1CCOCC1` [P-0381, 3-chloro-5-cyclopropoxy-4-(5-(3,5-dimethylisoxazol-4-yl)-1-(tetrahydro-2H-pyran-4-yl)-1H-pyrrolo[2,3-b]pyridin-3-yl)benzoic acid], 1 to 8 µM.
Next, `Cc1noc(C)c1-c1cnc2c(c1)c(-c1ccc(C(=O)O)cc1OC(F)(F)F)cn2C1CCCC1` [P-0382, 4-(1-cyclopentyl-5-(3,5-dimethylisoxazol-4-yl)-1H-pyrrolo[2,3-b]pyridin-3-yl)-3-(trifluoromethoxy)benzoic acid]: 1 to 8 µM; `Cc1noc(C)c1-c1cnc2c(c1)c(-c1ccc(C(=O)O)cc1OC(F)(F)F)cn2C1(C)CCOC1` (stereo not shown) [P-0383, 4-(5-(3,5-dimethylisoxazol-4-yl)-1-(3-methyltetrahydrofuran-3-yl)-1H-pyrrolo[2,3-b]pyridin-3-yl)-3-(trifluoromethoxy)benzoic acid]: 8 to 1000 µM; `Cc1noc(C)c1-c1cnc2c(c1)c(-c1ccc(C(=O)O)cc1OC(F)(F)F)cn2-c1cnc(C2CC2)nc1` [P-0384, 4-(1-(2-cyclopropylpyrimidin-5-yl)-5-(3,5-dimethylisoxazol-4-yl)-1H-pyrrolo[2,3-b]pyridin-3-yl)-3-(trifluoromethoxy)benzoic acid]: 1 to 8 µM.
To `Cc1noc(C)c1-c1cnc2c(c1)c(-c1ccc(C(=O)O)cc1OC(F)(F)F)cn2C1(C)CCOCC1` [P-0385, 4-(5-(3,5-dimethylisoxazol-4-yl)-1-(4-methyltetrahydro-2H-pyran-4-yl)-1H-pyrrolo[2,3-b]pyridin-3-yl)-3-(trifluoromethoxy)benzoic acid] belongs 8 to 1000 µM; to `Cc1noc(C)c1-c1cnc2c(c1)c(-c1c(Cl)cc(C(=O)O)cc1OC(F)(F)F)cn2-c1cnc(C2CC2)nc1` [P-0386, 3-chloro-4-(1-(2-cyclopropylpyrimidin-5-yl)-5-(3,5-dimethylisoxazol-4-yl)-1H-pyrrolo[2,3-b]pyridin-3-yl)-5-(trifluoromethoxy)benzoic acid], 1 to 8 µM.
On to `Cc1noc(C)c1-c1cnc2c(c1)c(-c1ccc(C(=O)O)cc1OCC(F)F)cn2-c1cnc(C2CC2)nc1` [P-0387, 4-(1-(2-cyclopropylpyrimidin-5-yl)-5-(3,5-dimethylisoxazol-4-yl)-1H-pyrrolo[2,3-b]pyridin-3-yl)-3-(2,2-difluoroethoxy)benzoic acid], for which the IC50 was in the range of 8 to 1000 µM.
